Values quoted from earlier work as cited in patent publication US7687492B2, “1,2,4-Oxadiazole derivatives as dipeptidyl peptidase-IV inhibitors for the treatment or prevention of diabetes” (Merck Sharp & Dohme Corp., priority 2004, dated 2010).
Blank lines part the entries; values can stand above or below the compound they belong to.

Experiments:
[1] = rats; Transplantation, 63: 1495-1500 (1997)
DP-IV = target: T1, DP-IV (Homo sapiens, UniProt P27487)
T1 construct: GRF is rapidly degraded in plasma to GRF[3-44]; host or cells: plasma (endogenous enzyme activity)

[2] = mouse, cyclophosphamide-induced neutropenia; WO 99/56753

T1 sequence (P27487 whole entry): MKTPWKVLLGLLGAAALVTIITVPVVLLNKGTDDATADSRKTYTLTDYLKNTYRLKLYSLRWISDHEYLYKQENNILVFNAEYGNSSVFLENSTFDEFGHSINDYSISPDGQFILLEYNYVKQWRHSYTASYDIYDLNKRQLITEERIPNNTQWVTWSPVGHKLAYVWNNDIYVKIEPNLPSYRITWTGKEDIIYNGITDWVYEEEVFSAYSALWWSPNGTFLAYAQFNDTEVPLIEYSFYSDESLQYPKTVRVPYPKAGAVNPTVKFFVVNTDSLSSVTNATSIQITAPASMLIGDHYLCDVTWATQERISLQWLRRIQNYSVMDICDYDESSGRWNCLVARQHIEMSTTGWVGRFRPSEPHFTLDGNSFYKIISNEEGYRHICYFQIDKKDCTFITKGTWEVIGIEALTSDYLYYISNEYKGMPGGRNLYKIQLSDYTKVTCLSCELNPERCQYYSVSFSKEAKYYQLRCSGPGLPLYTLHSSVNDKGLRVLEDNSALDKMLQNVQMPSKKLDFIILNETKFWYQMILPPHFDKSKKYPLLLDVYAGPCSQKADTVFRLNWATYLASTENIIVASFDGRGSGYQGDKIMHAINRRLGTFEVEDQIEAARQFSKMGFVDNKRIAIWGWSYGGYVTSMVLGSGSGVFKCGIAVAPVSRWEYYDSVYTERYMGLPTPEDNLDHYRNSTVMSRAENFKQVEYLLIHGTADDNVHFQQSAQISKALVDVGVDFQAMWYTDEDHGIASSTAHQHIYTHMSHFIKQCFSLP

Compound: CC(C)N1CCC(c2ccccc2)(c2ccccc2)CC1 [Prodipine, Pro-Pro-diphenyl-phosphonate]
cardiac allograft survival [1]: double cardiac allograft survival in rats from day 7 to day 14

degradation of GRF in plasma to GRF[3-44] (DP-IV): prevented
Compound: diprotin A

Compound: CC(C)[C@H](N)C(=O)N1CCC[C@H]1B(O)O [Val-Boro-Pro]
hematopoiesis [2]: stimulated hematopoiesis
